Results taken from patent publication US6703398B2, “Orally administered analgesic compositions containing nalbuphine” (priority 2001, dated 2004).

Columns and labels:
[1] = Pharmacokinetics of nalbuphine in beagles after oral administration of SDN compositions; details: 30 mg/kg of SDN; for AUC/Dose: nalbuphine in plasma, 30 mg/kg
Experimental: To assess the effects of various pharmaceutical compositions of the present invention on beagles. The compositions were orally administered into beagles, and the concentration of nalbuphine in vivo was monitored in the animals as follows:
2, In each study group, the pharmaceutical composition that contained 30 mg/kg of SDN were orally given to beagles.
4. The blood samples were analyzed by high performance liquid chromatography (HPLC) to determine the pharmacokinetics (including the half-life and bioavailability of nalbuphine) in vivo.

[2] = Efficacy and bioavailability study of nalbuphine ester prodrugs as orally administered compositions; assay type: in vivo, animals and humans; details: oral composition with oily substance, effect of adding the solubility-assisting agent; comparison among active ingredients
Text: Each and every one of these nalbuphine and/or nalbuphine ester prodrugs as listed above has been tested for suitability as an orally administered pharmaceutical composition for use in animals and humans. The efficacy and bioavailability of these nalbuphine ester prodrugs have been studied.

[3] = literature; cited from earlier work

For `O=C(CCCCCCCCC(=O)Oc1ccc2c3c1O[C@H]1[C@@H](O)CC[C@@]4(O)[C@@H](C2)N(CC2CCC2)CC[C@]314)Oc1ccc2c3c1O[C@H]1[C@@H](O)CC[C@@]4(O)[C@@H](C2)N(CC2CCC2)CC[C@]314` [SDN Powder, sebacoyl dinalbuphine ester], the “concentration of nalbuphine in plasma 1-3 hours after the oral uptake of SDN” value ([1]; FIG. 1, comparison among groups) was “much less than the other two groups”, the “concentration of nalbuphine in plasma after the peak” value ([1]; FIG. 1, later time points) was “decreased substantially” and the Bioavailability ([1]; bioavailability of nalbuphine, means ± S.E.) was 14.6%. The “Nalbuphine Half-Life” value ([1]; nalbuphine in plasma by HPLC, means ± S.E.) was 8.1 ± 1.6 h, the AUC/Dose ([1]; means ± S.E.) was 39 ± 11 ng·kg·h/mL/mg and the AUC/Dose ([1]; means ± S.E., listed as SDN Powder Group) was 39 ng·kg·h/mL/mg. For the same compound, the “bioavailability and half-life of nalbuphine in blood” value [2] was “the best in terms of longer half-life and greater bioavailability rate”.
In the case of “nalbuphine hydrochloride [nalbuphine-HCl]”, the “bioavailability through oral administration” value [3] is listed as “less than 5%”.
